From PubChem BioAssay AID212 (DTP/NCI, 2004)
Values joined by “and” are separate entries in the source; they are usually repeats but may differ in a detail not shown here. Equal entries are not always repeated. Inconclusive results are not listed.

Tested on: BDF1 mice, colon carcinoma 38 sc, T/C %
Experiment: NCI In Vivo Anticancer Drug Screen. Data for tumor model Colon Carcinoma 38 (subcutaneous) in B6D2F1 (BDF1) mice
Details: endpoint: median tumor weight (est.), higher = larger tumour
Procedure: The antitumor activity of compounds was measured in mice bearing transplantable tumors. Survival or tumor size were measured and the results are expressed as the measurement made in the treated group (T) divided by the measurement made in the vehicle treated control group (C). The tumor model used in this assay is Colon Carcinoma 38 (subcutaneous) in B6D2F1 (BDF1) mice

[1] = dose: 25.0 mg/kg/injection, schedule: Q07DX002 (ip), vehicle: saline with Tween-80
[2] = dose: 50.0 mg/kg/injection, schedule: Q07DX002 (ip), vehicle: saline with Tween-80
[3] = dose: 100.0 mg/kg/injection, schedule: Q07DX002 (ip), vehicle: saline with Tween-80

With NC(N)=NC(N)=Nc1ccc(-c2ccc(N=C(N)N=C(N)N)cc2)cc1 the T/C (dose: 3.12 mg/kg/injection, schedule: Q07DX002 (ip), vehicle: saline with Tween-80) was 72 % of control, the T/C (dose: 6.25 mg/kg/injection, schedule: Q07DX002 (ip), vehicle: saline with Tween-80) was 61 % of control and the T/C (dose: 12.5 mg/kg/injection, schedule: Q07DX002 (ip), vehicle: saline with Tween-80) was 75 % of control. The T/C [1] was 69 % of control and the T/C [2] was 58 % of control.
For Cc1cc(=O)n2c3c(c4c(cc13)c(CN(C)C)cc(=O)n4C)OC2, the T/C [1] was 73 % of control, the T/C [2] was 56 % of control and the T/C [3] was 45 % of control.
O=C(O[Si](Cc1ccccc1)(Cc1ccccc1)Cc1ccccc1)N(CCCl)CCCl was tested, and the T/C [1] was 77 % of control and 102 % of control, the T/C [3] was 194 % of control and the T/C (dose: 200.0 mg/kg/injection, schedule: Q07DX002 (ip), vehicle: saline with Tween-80) was 112 % of control.
With CN1CCN(c2ccc3nc(-c4ccc5nc(-c6ccc(O)cc6)[nH]c5c4)[nH]c3c2)CC1 the T/C (dose: 25.0 mg/kg/injection, schedule: Q07DX002 (ip), vehicle: saline) was 119 % of control, the T/C (dose: 50.0 mg/kg/injection, schedule: Q07DX002 (ip), vehicle: saline) was 116 % of control and the T/C (dose: 100.0 mg/kg/injection, schedule: Q07DX002 (ip), vehicle: saline) was 70 % of control. For the same compound, the T/C (dose: 200.0 mg/kg/injection, schedule: Q07DX002 (ip), vehicle: saline) was 97 % of control.
O=C(O)Cc1cccc2c(=O)cc(-c3ccccc3)oc12 was tested, and the T/C (dose: 47.3 mg/kg/injection, schedule: Q03HX004 (ip), vehicle: clinical formulation) was 124 % of control, the T/C (dose: 50.0 mg/kg/injection, schedule: Q07DX002 (ip), vehicle: Klucel (hydroxypropylcellulose) (HPC)) was 79 % of control and the T/C (dose: 50.0 mg/kg/injection, schedule: Q07DX002 (ip), vehicle: sodium bicarbonate) was 46 % of control. The T/C (dose: 63.0 mg/kg/injection, schedule: Q03HX004 (ip), vehicle: clinical formulation) was 89 % of control, the T/C (dose: 63.0 mg/kg/injection, schedule: Q07DX002 (ip), vehicle: sodium bicarbonate) was 70 % of control and the T/C (dose: 63.0 mg/kg/injection, schedule: Q07DX002 (iv), vehicle: sodium bicarbonate) was 120 % of control. For the same compound, the T/C (dose: 84.0 mg/kg/injection, schedule: Q03HX004 (ip), vehicle: clinical formulation) was 19 % of control, the T/C (dose: 84.0 mg/kg/injection, schedule: Q06HX002 (ip), vehicle: clinical formulation) was 80 % of control and the T/C (dose: 84.0 mg/kg/injection, schedule: Q07DX002 (ip), vehicle: saline) was 103 % of control. For the same compound, the T/C (dose: 84.0 mg/kg/injection, schedule: Q07DX002 (ip), vehicle: sodium bicarbonate) was 46 % of control, the T/C (dose: 84.0 mg/kg/injection, schedule: Q07DX002 (iv), vehicle: sodium bicarbonate) was 122 % of control and the T/C (dose: 100.0 mg/kg/injection, schedule: Q07DX002 (ip), vehicle: Klucel (hydroxypropylcellulose) (HPC)) was 4 % of control. The T/C (dose: 100.0 mg/kg/injection, schedule: Q07DX002 (ip), vehicle: sodium bicarbonate) was 73 % of control, the T/C (dose: 112.0 mg/kg/injection, schedule: Q01DX001 (ip), vehicle: clinical formulation) was 72 % of control and the T/C (dose: 112.0 mg/kg/injection, schedule: Q06HX002 (ip), vehicle: clinical formulation) was 29 % of control. The T/C (dose: 112.0 mg/kg/injection, schedule: Q07DX002 (ip), vehicle: clinical formulation) was 44 % of control, the T/C (dose: 112.0 mg/kg/injection, schedule: Q07DX002 (ip), vehicle: saline) was 13 % of control and the T/C (dose: 112.0 mg/kg/injection, schedule: Q07DX002 (ip), vehicle: sodium bicarbonate) was 90 % of control. For the same compound, the T/C (dose: 112.0 mg/kg/injection, schedule: Q07DX002 (iv), vehicle: sodium bicarbonate) was 100 % of control, the T/C (dose: 150.0 mg/kg/injection, schedule: Q01DX001 (ip), vehicle: clinical formulation) was 22 % of control and the T/C (dose: 150.0 mg/kg/injection, schedule: Q07DX002 (ip), vehicle: saline) was 2 % of control. For the same compound, the T/C (dose: 150.0 mg/kg/injection, schedule: Q07DX002 (ip), vehicle: sodium bicarbonate) was 67 % of control, the T/C (dose: 150.0 mg/kg/injection, schedule: Q07DX002 (iv), vehicle: sodium bicarbonate) was 15 % of control and the T/C (dose: 200.0 mg/kg/injection, schedule: Q07DX002 (ip), vehicle: sodium bicarbonate) was 42 % of control. The T/C (dose: 267.0 mg/kg/injection, schedule: Q07DX002 (ip), vehicle: saline) was 1 % of control.
